Among the data in PubChem BioAssay (NCI) are TGI and GI50 values, retold here.

Assay in all cases: DTP human tumour cell line panel, 48 h
Experiment [1] concerns SR leukemia.
The test system of experiment [2] is NCI-H226 lung.
Experiment [3] deals with NCI-H23 lung.
The test system of experiment [4] is A498 renal.
Experiment [5] deals with TK-10 renal.
In experiment [6] the test system is HCT-15 colon.
Experiment [7] deals with SF-268 CNS.
Experiment [8] concerns CAKI-1 renal.
For experiment [9], the system named is RXF 393 renal.
Experiment [10] deals with M14 melanoma.

Where “and” joins values, the source holds several entries; their conditions need not be identical. Identical values can stand only once.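 In this assay, cells in 96-well plates receive the compound at five concentrations for 48 hours. Endpoints are linearly interpolated between the surrounding concentrations. GI50 = concentration required for 50% inhibition of growth. TGI: concentration producing complete growth inhibition.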

Usually TGI stands for the concentration at which net growth stops. A low value points to more potent growth arrest. By GI50 is commonly meant the concentration giving 50% growth inhibition.

On to `OCCCNCc1ccccn1`, for which the TGI in experiment [1], in [2], in experiment [3], in experiment [4], in experiment [5] and in experiment [6] was over 100 µM throughout. For the same compound, the TGI in [7], in [8], in experiment [9] and in experiment [10] was over 100 µM in each case.

Consider `CCOC(=O)/C=C/c1ccc(C(=O)OCC)[nH]1`, for which the GI50 was 0.676 µM in experiment [1]; 15.4 µM in [2]; 7.16 µM in experiment [3]; 1.61 µM in experiment [4]; 6.05 µM in experiment [5]; 3.11 µM in [6]. In addition, the GI50 in experiment [7] is 6.65 µM; in experiment [8], 6.36 µM; in experiment [9], 9.59 µM; in experiment [10], 2.82 µM. For the same compound, the TGI in experiment [1] is over 100 µM; in [2], over 100 µM; in experiment [3], over 100 µM; in experiment [4] it was 12.1 µM; in experiment [5], over 100 µM; in experiment [6], over 100 µM. Further, the concentration for total growth inhibition (TGI) in [7] was over 100 µM; in [8], over 100 µM; in experiment [9], 46.9 µM; in experiment [10] it was over 100 µM.

Consider `CC(O)C(NC(=O)C(CS)NC(=O)C(CO)NC(=O)C(CCCCN)NC(=O)C(Cc1c[nH]c2ccccc12)NC(=O)C(Cc1ccc(O)cc1)NC(=O)C(CS)NC(=O)C(N)Cc1ccccc1)C(N)=O` (stereo not drawn), for which the GI50 in experiment [1] is 29.7 µM; in experiment [8], 1.08 µM; in [9], 14.5 µM. The concentration for total growth inhibition (TGI) in experiment [1] is > 25 µM and 86.5 µM; in experiment [2], over 25 µM; in [3], > 25 µM and 68 µM; in experiment [4] it was > 25 µM and 61.7 µM; in experiment [6], > 25 µM and 56.2 µM; in experiment [7] it was over 25 µM. Moreover, the TGI in experiment [8] was > 25 µM and 29.6 µM; in [9], > 25 µM and 36.6 µM; in experiment [10] it was over 25 µM.

With `O=C(N/N=C/c1ccc(F)cc1)c1[nH]c2ccc(I)cc2c1-c1ccccc1`, the concentration for 50% growth inhibition (GI50) in [1] is 0.297 µM; in experiment [2], 2.24 µM; in experiment [3] it was 0.551 µM; in experiment [4], 0.409 µM; in experiment [5] it was 19.7 µM; in experiment [6] it was 0.39 µM. The GI50 in experiment [7] is 0.772 µM; in experiment [8] it was 0.399 µM; in [10], 0.372 µM. For the same compound, the total growth inhibition concentration (TGI) was 3.37 µM in experiment [1]; over 66.8 µM in experiment [2]; over 25.1 µM in [3]; over 100 µM in experiment [5]; over 58.3 µM in [6]; over 80.7 µM in [7]. The total growth inhibition concentration (TGI) in [8] turned out to be 56.1 µM; in experiment [10] it was 7.85 µM.

On to `CC(=O)O/C(C)=C\C(=O)O/N=C(\N)c1ccc(C)cc1`, for which the TGI is over 100 µM in experiment [1]; 92.9 µM in [2]; 48.4 µM in experiment [3]; over 100 µM in experiment [4]; over 100 µM in experiment [5]; 91.6 µM in [7]. Further, the concentration for total growth inhibition (TGI) is over 100 µM in experiment [8], 99.3 µM in experiment [9] and 93.1 µM in experiment [10].

In the case of `COc1ccc(N=Cc2ccc(N(CCC#N)CCC#N)cc2)cc1`, the TGI in experiment [1] is over 100 µM; in experiment [2], over 100 µM; in [3], over 100 µM; in experiment [4] it was over 100 µM; in [5], over 89 µM; in experiment [6], over 100 µM. In addition, the TGI in [7], in experiment [8], in experiment [9] and in experiment [10] was over 100 µM throughout.

As to `Cc1ccc(N2C(=O)C(Cl)=C(Nc3cccc(O)c3)C2=O)cc1Cl`, the GI50 in [1] was 8.06 µM; in experiment [3], 15.2 µM; in experiment [4], 12.4 µM; in [5] it was 18.5 µM; in [6], 18.6 µM; in experiment [7] it was 18.3 µM. For the same compound, the GI50 in experiment [8] was 17 µM; in experiment [9], 0.549 µM; in experiment [10], 17.6 µM. In addition, the concentration for total growth inhibition (TGI) in experiment [1] came to 30.4 µM; in experiment [3] it was 30.5 µM; in [4], 25.5 µM; in experiment [5], 33.4 µM; in experiment [6] it was 40.1 µM; in [7], 37.2 µM. Moreover, the TGI in [8] worked out at 34.6 µM; in experiment [9], 22.2 µM; in experiment [10], 32.3 µM.

As for `O=C(Nc1ccc(Br)cc1)c1cc(Br)cc(Br)c1O`, the GI50 in experiment [1] was 3.87 µM; in [2] it was 3.45 µM; in experiment [3], 2.18 µM; in experiment [4], 1.82 µM; in experiment [5], 4.2 µM; in experiment [6], 3.2 µM. Also, the results for the GI50 in experiment [7], in [8] and in experiment [10] were 3.59 µM, 1.73 µM and 2.99 µM, respectively. Moreover, the concentration for total growth inhibition (TGI) was over 100 µM in experiment [1]; 12.3 µM in experiment [2]; 6.8 µM in experiment [3]; 4.37 µM in experiment [4]; over 100 µM in [5]; 13.5 µM in [6]. Also, the TGI in experiment [7] was 18.6 µM; in experiment [8], 4.59 µM; in experiment [10], 11.3 µM.

With `CCOC(=O)C(=O)Nc1c(C)cccc1CC`, the TGI in experiment [1], in [2], in experiment [3], in [5], in [7] and in experiment [8] was over 100 µM throughout. Further, the TGI in experiment [9] and in experiment [10] was over 100 µM each time.

As to `C=C1C(O)C2C(=C(CC(C)C)C13CC3)C(=O)C(C)(C)C2OC` (stereo not drawn), the GI50 is 82.9 µM in experiment [1]; over 100 µM in experiment [3]; over 100 µM in [4]; over 100 µM in experiment [5]; over 100 µM in experiment [6]; over 100 µM in [7]. Also, the GI50 in experiment [9] and in experiment [10] was over 100 µM throughout. Further, the TGI in experiment [1], in experiment [3], in experiment [4], in experiment [5], in [6] and in experiment [7] was over 100 µM throughout. Also, the TGI in experiment [9] and in experiment [10] was over 100 µM throughout.
